According to patent US8324250B2 (Hoffmann-La Roche Inc., priority 2009, dated 2012):

Target: T1, recombinant human NK3 receptor (Homo sapiens, UniProt P29371)
T1 construct: expressed in transfected cells; host or cells: HEK293 cells (transient expression), membranes
T1 sequence (P29371 1-465): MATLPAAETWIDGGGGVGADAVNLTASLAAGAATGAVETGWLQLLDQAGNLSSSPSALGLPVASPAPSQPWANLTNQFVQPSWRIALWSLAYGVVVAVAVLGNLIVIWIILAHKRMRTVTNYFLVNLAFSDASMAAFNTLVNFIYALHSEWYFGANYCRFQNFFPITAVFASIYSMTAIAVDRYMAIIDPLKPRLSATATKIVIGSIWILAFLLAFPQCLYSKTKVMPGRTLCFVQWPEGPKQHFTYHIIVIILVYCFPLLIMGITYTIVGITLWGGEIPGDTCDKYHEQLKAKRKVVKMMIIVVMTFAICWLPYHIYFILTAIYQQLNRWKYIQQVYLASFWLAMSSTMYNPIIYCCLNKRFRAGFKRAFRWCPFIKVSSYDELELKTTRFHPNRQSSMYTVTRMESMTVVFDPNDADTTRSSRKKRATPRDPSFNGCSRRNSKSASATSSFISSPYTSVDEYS
Experiment: [3H]SR142801 competition binding assay
Conditions: membranes from HEK293 cells transiently expressing recombinant human NK3 receptor; [3H]SR142801 radioligand; 75 min at RT; Ki by Cheng-Prussoff; read-out: Data Ki (hNK-3 receptor affinity)
Outline: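 Membranes from HEK293 cells transiently expressing the receptor, 5 μg protein/well, in 50 mM Tris-HCl pH 7.4 with 4 mM MnCl2, 1 μM phosphoramidon, 0.1% BSA; nonspecific binding defined with 10 μM SB222200. Filtration and scintillation counting; IC50 from Hill fit, Ki by Cheng-Prussoff using saturation-derived KD, duplicates.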

Row | Compound | Ki [nM]
1 | C[C@H](NC(=O)C1(c2ccccc2)CCN(C(=O)N2CCN(c3ccc(F)cc3)CC2)CC1)c1ccc(F)cc1 [Example 203, 1-[4-(4-Fluoro-phenyl)-piperazine-1-carbonyl]-4-phenyl-piperidine-4-carboxylic acid [(S)-1-(4-fluoro-phenyl)-ethyl]-amide] | 8.7
2 | O=C(c1ccc(-c2ccc(F)cc2)cc1)N1CCC(C(=O)NC(c2ccc(F)cc2)C(F)(F)F)(c2ccc(F)cc2)CC1 (stereo not drawn) [Example 146, 1-(4′-Fluoro-biphenyl-4-carbonyl)-4-(4-fluoro-phenyl)-piperidine-4-carboxylic acid [2,2,2-trifluoro-1-(4-fluoro-phenyl)-ethyl]-amide] | 36
3 | C[C@H](NC(=O)C1(c2ccc(F)cc2)CCN(C(=O)c2ccc(-c3ccc(F)cc3)cc2)CC1)c1cccc(F)c1 [Example 129, 1-(4′-Fluoro-biphenyl-4-carbonyl)-4-(4-fluoro-phenyl)-piperidine-4-carboxylic acid [(S)-1-(3-fluoro-phenyl)-ethyl]-amide] | 12
4 | O=C(c1ccc(N2CCCCC2=O)cc1)N1CCC(C(=O)N[C@H](c2cccc(F)c2)C2CC2)(c2ccc(F)cc2)CC1 [Example 198, 4-(4-Fluoro-phenyl)-1-[4-(2-oxo-piperidine-1-yl)-benzoyl]-piperidine-4-carboxylic acid [(S)-cyclopropyl-(3-fluoro-phenyl)-methyl]-amide] | 21.5
5 | C[C@H](NC(=O)C1(c2ccccc2)CCN(C(=O)N2CCN(c3ccc(C#N)cn3)CC2)CC1)c1ccccc1 [Example 227, 1-[4-(5-Cyano-pyridin-2-yl)-piperazine-1-carbonyl]-4-phenyl-piperidine-4-carboxylic acid ((S)-1-phenyl-ethyl)-amide] | 24.9
6 | O=C(N1CCN(c2ccc(F)cc2)CC1)N1CCC(C(=O)N[C@H](c2cccc(F)c2)C2CC2)(c2ccc(F)cc2)CC1 [Example 199, 4-(4-Fluoro-phenyl)-1-[4-(4-fluoro-phenyl)-piperazine-1-carbonyl]-piperidine-4-carboxylic acid [(S)-cyclopropyl-(3-fluoro-phenyl)-methyl]-amide] | 5.1
7 | Cc1noc(-c2ccc(C(=O)N3CCC(C(=O)N[C@@H](C)c4ccc(F)cc4)(c4ccccc4)CC3)cc2)n1 [Example 76, 1-[4-(3-Methyl-[1,2,4]oxa-diazol-5-yl)-benzoyl]-4-phenyl-piperidine-4-carboxylic acid [(S)-1-(4-fluoro-phenyl)-ethyl]-amide] | 2.9
8 | C[C@H](NC(=O)C1(c2ccccc2)CCN(C(=O)c2ccc(N3CCCCC3)nc2)CC1)c1ccccc1 [Example 12, 4-Phenyl-1-(3,4,5,6-tetrahydro-2H-[l,2′]bipyridinyl-5′-carbonyl)-piperidine-4-carboxylic acid ((S)-1-phenyl-ethyl)-amide] | 50.4
9 | C[C@H](NC(=O)C1(c2ccccc2)CCN(C(=O)c2ccc(-c3cncnc3)cc2)CC1)c1ccccc1 [Example 44, 4-Phenyl-1-(4-pyrimidin-5-yl-benzoyl)-piperidine-4-carboxylic acid ((S)-1-phenyl-ethyl)-amide] | 78.5
10 | C[C@H](NC(=O)C1(c2ccccc2)CCN(C(=O)N2CCN(c3ccc(F)cc3)CC2)CC1)C1CCCCC1 [Example 233, 1-[4-(4-Fluoro-phenyl)-piperazine-1-carbonyl]-4-phenyl-piperidine-4-carboxylic acid ((S)-1-cyclohexyl-ethyl)-amide] | 5.3
11 | C=C(C)CC1(C(=O)N[C@@H](C)c2ccc(F)cc2)CCN(C(=O)c2ccc(-c3ccc(F)cc3)cc2)CC1 [Example 113, 1-(4′-Fluoro-biphenyl-4-carbonyl)-4-(2-methyl-allyl)-piperidine-4-carboxylic acid [(S)-1-(4-fluoro-phenyl)-ethyl]-amide] | 35.6
12 | Cc1nc(-c2ccc(C(=O)N3CCC(C(=O)NC(c4ccc(F)cc4)C(F)(F)F)(c4ccc(F)cc4)CC3)cc2)no1 (stereo not drawn) [Example 165, 4-(4-Fluoro-phenyl)-1-[4-(5-methyl-[1,2,4]oxadiazol-3-yl)-benzoyl]-piperidne-4-carboxylic acid [2,2,2-trifluoro-1-(4-fluoro-phenyl)-ethyl]-amide] | 66
13 | CC(C)C(NC(=O)C1(c2ccc(F)cc2)CCN(C(=O)c2ccc(-c3ccc(F)cc3)cc2)CC1)c1ccccc1 (stereo not drawn) [Example 143, 1-(4′-Fluoro-biphenyl-4-carbonyl)-4-(4-fluoro-phenyl)-piperidine-4-carboxylic acid (2-methyl-1-phenyl-propyl)-amide] | 6.9
14 | O=C(c1ccc(-c2ccc(F)cc2)cc1)N1CCC(C(=O)N[C@H](c2cccc(F)c2)C2CC2)(c2ccc(F)cc2)CC1 [Example 193, 1-(4′-Fluoro-biphenyl-4-carbonyl)-4-(4-fluoro-phenyl)-piperidine-4-carboxylci acid [(S)-cyclopropyl-(3-fluoro-phenyl)-methyl]-amide] | 7.4
15 | Cc1nc(-c2ccc(C(=O)N3CCC(C(=O)N[C@@H](C)c4ccc(F)cc4)(C4CCCC4)CC3)cc2)no1 [Example 112, 4- Cyclopentyl-1-[4-(5-methyl-[1,2,4]oxa-diazol-3-yl)-benzoyl]-piperidine-4-carboxylic acid [(S)-1-(4-fluoro-phenyl)-ethyl]-amide] | 82.8
16 | Cc1noc(-c2ccc(C(=O)N3CCC(C(=O)N[C@@H](C)c4ccc(Cl)cc4)(c4ccccc4)CC3)cc2)n1 [Example 104, 1-[4-(3-Methyl-[1,2,4]oxa-diazol-5-yl)-benzoyl]-4-phenyl-piperidine-4-carboxylic acid [(S)-1-(4-chloro-phenyl)-ethyl]-amide] | 11.2
17 | C[C@H](NC(=O)C1(c2ccc(F)cc2)CCN(C(=O)N2CCN(c3ccc(F)cc3)CC2)CC1)c1ccc(F)cc1 [Example 179, 4-(4-Fluoro-phenyl)-1-[4-(fluoro-phenyl)-piperazine-1-carbonyl]-piperidine-4-carboxylic acid [(S)-1-(4-fluoro-phenyl)-ethyl]-amide] | 18
18 | Cc1noc(-c2ccc(C(=O)N3CCC(C(=O)NC4(c5ccc(F)cc5)CC4)(c4ccc(F)cc4)CC3)cc2)n1 [Example 157, 4-(4-Fluoro-phenyl)-1-[4-(3-methyl-[1,2,4]oxadiazol-5-yl)-benzoyl]-piperidine-4-carboxylic acid [1-(4-fluoro-phenyl)-cyclopropyl]-amide] | 9.4
19 | CC(C)C(NC(=O)C1(c2ccc(F)cc2)CCN(C(=O)c2ccc(-c3ccc(F)cc3)cc2)CC1)c1ccc(F)cc1 (stereo not drawn) [Example 144, 1-(4′-Fluoro-biphenyl-carbonyl)-4-(4-fluoro-phenyl)-piperidne-4-carboxylic acid [1-(4-fluoro-phenyl)-2-methyl-propyl]-amide] | 10.9
20 | C[C@H](NC(=O)C1(c2ccccc2)CCN(C(=O)c2ccc(N3CCOCC3)nc2)CC1)c1ccccc1 [Example 10, 1-(6-Morpholin-4-yl-pyridine-3-carbonyl)-4-phenyl-piperidine-4-carboxylic acid ((S)-1-phenyl-ethyl)-amide] | 76.8
21 | O=C(c1ccc(-c2ccc(F)cc2)cc1)N1CCC(C(=O)N[C@@H](CO)c2ccccc2)(c2ccc(F)cc2)CC1 [Example 140, 1-(4′-Fluoro-biphenyl-4-carbonyl)-4-(4-fluoro-phenyl)-piperidine-4-carboxylic acid ((R)-2-hydroxy-1-phenyl-ethyl)-amide] | 7.8
22 | C[C@H](NC(=O)C1(c2ccccc2)CCN(C(=O)N2CCC(c3ccccc3)CC2)CC1)c1ccccc1 [Example 204, 4-Phenyl-1-(4-phenyl-piperidine-1-carbonyl)-piperidine-4-carboxylic acid ((S)-1-phenyl-ethyl)-amide] | 79.2
23 | C[C@H](NC(=O)C1(c2ccccc2)CCN(C(=O)c2ccc(-c3cnco3)cc2)CC1)c1ccccc1 [Example 22, 1-(4-Oxazol-5-yl-benzoyl)-4-phenyl-piperidine-4-carboxylic acid ((S)-1-phenyl-ethyl)-amide] | 65.8
24 | O=C(c1ccc(-c2ccc(F)cc2)cc1)N1CCC(C(=O)N[C@@H](CO)c2ccc(F)cc2)(c2ccc(F)cc2)CC1 [Example 151, 1-(4′-Fluoro-biphenyl-4-carbonyl)-4-(4-fluoro-phenyl)-piperidine-4-carboxylic acid [(R)-1-(4-fluoro-phenyl)-2-hydroxy-ethyl]-amide] | 11.5
25 | Cc1nc(-c2ccc(C(=O)N3CCC(C(=O)N[C@@H](C)c4ccc(F)cc4)(c4ccccc4)CC3)cc2)no1 [Example 77, 1-[4-(5-Methyl-[1,2,4]oxa-diazol-3-yl)-benzoyl]-4-phenyl-piperidine-4-carboxylic acid [(S)-1-(4-fluoro-phenyl)-ethyl]-amide] | 12.2
26 | Cc1noc(-c2ccc(C(=O)N3CCC(C(=O)N[C@@H](C)c4cccc(F)c4)(c4ccc(F)cc4)CC3)cc2)n1 [Example 161, 4-(4-Fluoro-phenyl)-1-[4-(3-methyl-[1,2,4]oxadiazol-5-yl)-benzoyl]-piperidine-4-carboxylic acid [(S)-1-(3-fluoro-phenyl)-ethyl]-amide] | 4.6
27 | Cc1nc(-c2ccc(C(=O)N3CCC(C(=O)N[C@@H](C)c4ccccc4)(c4ccccc4)CC3)cc2)no1 [Example 41, 1-[4-(5-Methyl-[1,2,4]oxa-diazol-3-yl)-benzoyl]-4-phenyl-piperidine-4-carboxylic acid ((S)-1-phenyl-ethyl)-amide] | 9.4
